As usually defined, the Kd is the free concentration of one partner at which half of the binding sites on the other are occupied at equilibrium, for simple one-to-one binding. The low end stands for a tighter complex, the high end for a looser complex.

The experiment deals with T1, XylR (Mycolicibacterium smegmatis, UniProt A0R508).
T1 construct: gene MSMEG_6022
T1 sequence (A0R508 1-393): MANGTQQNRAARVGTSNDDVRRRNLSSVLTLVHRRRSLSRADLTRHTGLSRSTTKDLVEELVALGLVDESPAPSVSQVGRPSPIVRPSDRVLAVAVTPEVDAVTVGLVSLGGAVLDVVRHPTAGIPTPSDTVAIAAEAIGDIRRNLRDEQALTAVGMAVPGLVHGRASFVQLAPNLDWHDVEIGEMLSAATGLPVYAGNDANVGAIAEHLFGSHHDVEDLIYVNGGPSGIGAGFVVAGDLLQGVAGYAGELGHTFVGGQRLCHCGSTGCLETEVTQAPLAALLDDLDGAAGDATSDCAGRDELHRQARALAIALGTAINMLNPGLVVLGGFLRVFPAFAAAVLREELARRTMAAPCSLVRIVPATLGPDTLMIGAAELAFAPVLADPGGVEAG
Nature of the experiment: isothermal titration calorimetry. Format: binding. Conditions: 20 mM Tris-base, 100 mM NaCl, 5 mM MgCl2, pH 7.5; 35 μM XylR; independent-site model, n = 1.09 ± 0.04.

With `OC1OC[C@@H](O)[C@H](O)[C@H]1O` (stereo partly drawn) [D-xylose], the Kd is 4.72 ± 0.6 µM.

For the origin of these results see paper PMC10138657, “D-Xylose Blocks the Broad Negative Regulation of XylR on Lipid Metabolism and Affects Multiple Physiological Characteristics in Mycobacteria” (International Journal of Molecular Sciences, 2023).
